Test results reported in article PMC3580017 (Journal of natural products, 2013).

Tested on: HT-29 human colon cancer cells
Assay: Cytotoxicity against HT-29 human colon cancer cells
Type: cell-based
Details: HT-29 versus CCD-112CoN

CCCC/C=C/C=C/C=C/[C@@H]1CC[C@@H](O)[C@H](C)N1C [Compound 1, (2S,3R,6S)-6-((1E,3E,5E)-deca-1,3,5-trien-1-yl)-1,2-dimethylpiperidin-3-ol]
selectivity ratio for cancerous colon cells versus normal colon cells: approximately 4
